Molecular target: AChE (Electrophorus electricus, 220 U·mg^-1) (Electrophorus electricus, UniProt O42275)
Experiment: modified Ellman assay, […] nm
Type: biochemical

Chain of AChE (Electrophorus electricus, 220 U·mg^-1) (O42275 24-633): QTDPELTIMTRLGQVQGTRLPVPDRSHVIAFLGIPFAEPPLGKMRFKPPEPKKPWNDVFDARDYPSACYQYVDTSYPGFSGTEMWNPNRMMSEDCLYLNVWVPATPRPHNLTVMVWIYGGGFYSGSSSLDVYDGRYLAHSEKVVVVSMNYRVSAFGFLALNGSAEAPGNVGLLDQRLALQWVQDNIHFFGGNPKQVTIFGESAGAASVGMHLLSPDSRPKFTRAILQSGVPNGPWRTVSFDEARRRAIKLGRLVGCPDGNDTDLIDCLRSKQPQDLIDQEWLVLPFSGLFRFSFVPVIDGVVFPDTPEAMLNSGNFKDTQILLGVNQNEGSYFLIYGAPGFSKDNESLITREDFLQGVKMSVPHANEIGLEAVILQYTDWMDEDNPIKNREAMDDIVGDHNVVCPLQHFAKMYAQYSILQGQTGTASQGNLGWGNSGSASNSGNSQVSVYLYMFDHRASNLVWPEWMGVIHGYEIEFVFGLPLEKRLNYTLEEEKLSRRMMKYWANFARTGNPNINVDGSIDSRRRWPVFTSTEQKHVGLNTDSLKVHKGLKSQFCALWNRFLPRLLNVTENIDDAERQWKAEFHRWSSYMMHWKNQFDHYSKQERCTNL

## CCOP(=S)(OCC)Oc1nc(Cl)c(Cl)cc1Cl [CPF, chlorpyrifos]
  IC50: 73 µM

## COP(=O)(OC)OC=C(Cl)Cl [DDVP, dichlorvos]
  IC50: 1.25 µM

Source: article PMC11436701 (Scientific Reports, 2024)
